One assay has as its target T1, IKKε (Homo sapiens, UniProt Q14164).
T1 sequence (Q14164 1-716): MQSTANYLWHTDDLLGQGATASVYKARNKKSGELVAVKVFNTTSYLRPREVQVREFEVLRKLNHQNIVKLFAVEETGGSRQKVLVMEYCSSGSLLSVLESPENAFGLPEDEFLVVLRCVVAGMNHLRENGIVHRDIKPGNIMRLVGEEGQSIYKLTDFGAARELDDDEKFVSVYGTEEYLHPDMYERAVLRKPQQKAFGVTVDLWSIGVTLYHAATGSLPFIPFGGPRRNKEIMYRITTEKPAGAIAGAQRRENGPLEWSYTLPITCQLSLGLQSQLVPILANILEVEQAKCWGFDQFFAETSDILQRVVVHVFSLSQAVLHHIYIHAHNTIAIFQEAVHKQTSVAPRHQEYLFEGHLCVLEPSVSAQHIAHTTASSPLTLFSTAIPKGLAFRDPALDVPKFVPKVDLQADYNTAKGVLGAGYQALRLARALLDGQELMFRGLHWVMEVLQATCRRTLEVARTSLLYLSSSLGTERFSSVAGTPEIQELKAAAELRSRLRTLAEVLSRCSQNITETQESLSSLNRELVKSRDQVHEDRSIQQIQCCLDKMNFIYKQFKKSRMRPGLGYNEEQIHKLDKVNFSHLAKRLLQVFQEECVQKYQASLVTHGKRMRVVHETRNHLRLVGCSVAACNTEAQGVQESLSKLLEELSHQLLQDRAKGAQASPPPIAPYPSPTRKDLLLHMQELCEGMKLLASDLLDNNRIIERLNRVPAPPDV
In words: IKKe Biochemical Assay. The conditions noted are these: read-out: IKKε IC50. An outline of the steps: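 Activity was measured as mobility-shift separation of phosphorylated from unphosphorylated substrate on a LabChip EZ Reader. Compound was titrated from 30 uM final in 10 points, 1:4 steps, with 1% DMSO, and enzyme plus substrate reacted 90 min at 25° C before stop buffer. Control wells held 10 uM staurosporine.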

The test system of assay [1] is phosphorylation of the IRF-3 protein in MDA-MB-468 cells. Briefly: pIRF3 immunocytochemistry cell based assay. The conditions noted are these: Homo sapiens; MDA-MB-468 cells, Poly(I:C) stimulation; read-out: pIRF3 IC50. An outline of the steps: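 After 2 h stimulation with Poly(I:C) (10 ug/ml), following 1 h compound pre-treatment (10-point, 3-fold dilution, top 10 uM), MDA-MB-468 cells were fixed and stained with anti-pIRF3 antibody. pIRF3 fluorescence was normalized to PI staining or cell count on an Acumen cytometer. IC50 curves were derived from this.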

In another assay the target is T2, TBK1 (Homo sapiens, UniProt Q9UHD2).
T2 sequence (Q9UHD2 1-729): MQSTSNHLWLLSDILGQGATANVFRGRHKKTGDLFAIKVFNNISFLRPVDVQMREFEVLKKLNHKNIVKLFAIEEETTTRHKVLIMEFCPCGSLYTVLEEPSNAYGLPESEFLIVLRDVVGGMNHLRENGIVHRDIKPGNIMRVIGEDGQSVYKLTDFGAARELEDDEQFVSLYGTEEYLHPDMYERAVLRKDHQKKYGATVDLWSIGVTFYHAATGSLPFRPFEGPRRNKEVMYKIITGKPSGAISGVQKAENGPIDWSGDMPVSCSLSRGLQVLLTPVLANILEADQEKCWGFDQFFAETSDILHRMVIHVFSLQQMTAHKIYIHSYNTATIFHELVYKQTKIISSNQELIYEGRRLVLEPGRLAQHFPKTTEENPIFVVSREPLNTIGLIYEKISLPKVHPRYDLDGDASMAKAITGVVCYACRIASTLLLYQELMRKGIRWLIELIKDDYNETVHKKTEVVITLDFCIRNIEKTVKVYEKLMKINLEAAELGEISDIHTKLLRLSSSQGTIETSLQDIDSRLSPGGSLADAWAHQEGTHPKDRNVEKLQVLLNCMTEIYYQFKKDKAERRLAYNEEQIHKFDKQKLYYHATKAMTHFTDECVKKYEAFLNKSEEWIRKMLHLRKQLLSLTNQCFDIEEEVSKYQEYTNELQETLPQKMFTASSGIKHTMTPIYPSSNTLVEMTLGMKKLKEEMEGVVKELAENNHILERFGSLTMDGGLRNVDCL
Briefly: TBK Biochemical Assay. The conditions noted are these: read-out: TBK1 IC50. The procedure, abridged:
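Caliper LabChip mobility-shift readout of substrate and product after 90 min of TBK1 reaction at 25° C and stop-buffer addition. Compounds tested in 1:4 serial dilution over 10 points from 30 uM final at 1% DMSO; staurosporine 10 uM final defines full inhibition.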

Drawing on patent US10428080B2, “TBK/IKK inhibitor compounds and uses thereof” (Merck Patent GmbH, priority 2015, dated 2019), this text covers IC50 for 16 molecules.

pIC50: −log10 of the molar value. Structures can show the parent of a compound that is named as a salt. Some results are limits rather than exact numbers.

Take `COc1cc(C(=O)N2CCC(F)(F)C2)ccc1-c1cc2nccc(-c3ccc(OC4CCOCC4)c(C#N)c3)c2o1` [Compound 45, 5-{2-[4-(3,3-Difluoro-pyrrolidine-1-carbonyl)-2-methoxy-phenyl]-furo[3,2-b]pyridin-7-yl}-2-(tetrahydro-pyran-4-yloxy)-benzonitrile]: the pIC50 on IKKε was greater than 7.00; in assay [1] it was 6.00 to 7.00; on TBK1, greater than 7.00.

As to `COc1cc(C(=O)N2CC3CCC(C2)O3)ccc1-c1cc2nccc(-c3ccc(NC4CCOCC4)c(C#N)c3)c2o1` [Compound 46, 5-{2-[2-Methoxy-4-(8-oxa-3-aza-bicyclo[3.2.1]octane-3-carbonyl)-phenyl]-furo[3,2-b]pyridin-7-yl}-2-(tetrahydro-pyran-4-ylamino)-benzonitrile], the pIC50 is greater than 7.00 on IKKε, 6.00 to 7.00 in assay [1] and greater than 7.00 on TBK1.

Take `COc1cc(C(=O)N2CC[C@H](N(C)C)C2)ccc1-c1cc2nccc(-c3ccc(N4CC[C@H](F)C4)c(C#N)c3)c2o1` [Compound 47, 5-{2-[4-((S)-3-Dimethylamino-pyrrolidine-1-carbonyl)-2-methoxy-phenyl]-furo[3,2-b]pyridin-7-yl}-2-((S)-3-fluoro-pyrrolidin-1-yl)-benzonitrile]: the pIC50 at IKKε was greater than 7.00; in assay [1] it was 6.00 to 7.00; at TBK1, greater than 7.00.

Consider `COc1cc(C(=O)NC[C@@H](O)CO)ccc1-c1cc2nccc(-c3ccc(OC4CCOCC4)c(C#N)c3)c2o1` [Compound 49, 4-{7-[3-Cyano-4-(tetrahydro-pyran-4-yloxy)-phenyl]-furo[3,2-b]pyridin-2-yl}-N—((R)-2,3-dihydroxy-propyl)-3-methoxy-benzamide], for which the pIC50 on IKKε is greater than 7.00; in assay [1] it was 6.00 to 7.00; at TBK1 it was greater than 7.00.

Turning to `COc1cc(-c2n[nH]c(=O)o2)ccc1-c1cc2nccc(-c3ccc(OC4CCOCC4)c(C#N)c3)c2o1` [Compound 50, 5-{2-[2-Methoxy-4-(5-oxo-4,5-dihydro-[1,3,4]oxadiazol-2-yl)-phenyl]-furo[3,2-b]pyridin-7-yl}-2-(tetrahydro-pyran-4-yloxy)-benzonitrile], the pIC50 was greater than 7.00 on IKKε, 6.00 to 7.00 in assay [1] and greater than 7.00 on TBK1.

Turning to `COc1cc(C(=O)NC2(CO)COC2)ccc1-c1cc2nccc(-c3ccc(OC4CCOCC4)c(C#N)c3)c2o1` [Compound 51, 4-{7-[3-Cyano-4-(tetrahydro-pyran-4-yloxy)-phenyl]-furo[3,2-b]pyridin-2-yl}-N-(3-hydroxymethyl-oxetan-3-yl)-3-methoxy-benzamide], the pIC50 at IKKε is greater than 7.00; in assay [1], 6.00 to 7.00; on TBK1, greater than 7.00.

As to `COc1cc(C(=O)N2CCC3(CCNC3=O)CC2)ccc1-c1cc2nccc(-c3ccc(NC4CCOCC4)c(C#N)c3)c2o1` [Compound 52, 5-{2-[2-Methoxy-4-(1-oxo-2,8-diaza-spiro[4.5]decane-8-carbonyl)-phenyl]-furo[3,2-b]pyridin-7-yl}-2-(tetrahydro-pyran-4-ylamino)-benzonitrile], the pIC50 on IKKε was greater than 7.00; in assay [1], 6.00 to 7.00; at TBK1, greater than 7.00.

`COc1cc(C(=O)N(C)OC)ccc1-c1cc2nccc(-c3ccc(OC4CCOCC4)c(C#N)c3)c2o1` [Compound 53, 4-{7-[3-Cyano-4-(tetrahydro-pyran-4-yloxy)-phenyl]-furo[3,2-b]pyridin-2-yl}-3,N-dimethoxy-N-methyl-benzamide]: the pIC50 at IKKε is greater than 7.00; in assay [1] it was 6.00 to 7.00; at TBK1, greater than 7.00.

`COc1cc(C(=O)N[C@@H]2CCC[C@@H](O)[C@H]2O)ccc1-c1cc2nccc(-c3ccc(OC4CCOCC4)c(C#N)c3)c2o1` [Compound 54, 4-{7-[3-Cyano-4-(tetrahydro-pyran-4-yloxy)-phenyl]-furo[3,2-b]pyridin-2-yl}-N-((1R,2S,3R)-2,3-dihydroxy-cyclohexyl)-3-methoxy-benzamide]: the pIC50 on IKKε was greater than 7.00; in assay [1], 6.00 to 7.00; at TBK1, greater than 7.00.

On to `COc1cc(C(=O)N2CC3NCCC32)ccc1-c1cc2nccc(-c3ccc(OC4CCOCC4)c(C#N)c3)c2o1` (stereo not drawn) [Compound 55, 5-{2-[4-(2,6-Diaza-bicyclo[3.2.0]heptane-6-carbonyl)-2-methoxy-phenyl]-furo[3,2-b]pyridin-7-yl}-2-(tetrahydro-pyran-4-yloxy)-benzonitrile hydrochloride], for which the pIC50 (on IKKε; in assay [1]; on TBK1) was greater than 7.00 throughout.

Turning to `COc1cc(C(=O)N(C)C)ccc1-c1cc2nccc(-c3ccc(N4CC[C@@H](F)C4)c(C#N)c3)c2o1` [Compound 57, 4-{7-[3-Cyano-4-((R)-3-fluoro-pyrrolidin-1-yl)-phenyl]-furo[3,2-b]pyridin-2-yl}-3-methoxy-N,N-dimethyl-benzamide], the pIC50 on IKKε is greater than 7.00; in assay [1] it was 6.00 to 7.00; at TBK1, greater than 7.00.

On to `COc1cc(C(=O)N2CC3CCC(C2)O3)ccc1-c1cc2nccc(-c3ccc(OC4CCOCC4)c(C#N)c3)c2o1` [Compound 58, 5-{2-[2-Methoxy-4-(8-oxa-3-aza-bicyclo[3.2.1]octane-3-carbonyl)-phenyl]-furo[3,2-b]pyridin-7-yl}-2-(tetrahydro-pyran-4-yloxy)-benzonitrile], for which the pIC50 (on IKKε; in assay [1]; at TBK1) was greater than 7.00 each time.

For `COc1cc(C(=O)NCC2(C)COC2)ccc1-c1cc2nccc(-c3ccc(OC4CCOCC4)c(C#N)c3)c2o1` [Compound 59, 4-{7-[3-Cyano-4-(tetrahydro-pyran-4-yloxy)-phenyl]-furo[3,2-b]pyridin-2-yl}-3-methoxy-N-(3-methyl-oxetan-3-ylmethyl)-benzamide], the results for the pIC50 (on IKKε; in assay [1]; on TBK1) were greater than 7.00, 6.00 to 7.00 and greater than 7.00, respectively.

In the case of `COc1cc(C(=O)NC2CCNCC2)ccc1-c1cc2nccc(-c3ccc(OC4CCOCC4)c(C#N)c3)c2o1` [Compound 62, 4-{7-[3-Cyano-4-(tetrahydro-pyran-4-yloxy)-phenyl]-furo[3,2-b]pyridin-2-yl}-3-methoxy-N-piperidin-4-yl-benzamide hydrochloride], the figures for the pIC50 (on IKKε; in assay [1]; at TBK1) were greater than 7.00, 6.00 to 7.00 and greater than 7.00, respectively.

`COc1cc(C(=O)NC(C)(C)CN(C)C)ccc1-c1cc2nccc(-c3ccc(OC4CCOCC4)c(C#N)c3)c2o1` [Compound 63, 4-{7-[3-Cyano-4-(tetrahydro-pyran-4-yloxy)-phenyl]-furo[3,2-b]pyridin-2-yl}-N-(2-dimethylamino-1,1-dimethyl-ethyl)-3-methoxy-benzamide]: the pIC50 (at IKKε; in assay [1]; on TBK1) was greater than 7.00 in each case.

Take `COc1cc(C(=O)NC2CCN(C)C2)ccc1-c1cc2nccc(-c3ccc(OC4CCOCC4)c(C#N)c3)c2o1` (stereo not drawn) [Compound 64, 4-{7-[3-Cyano-4-(tetrahydro-pyran-4-yloxy)-phenyl]-furo[3,2-b]pyridin-2-yl}-3-methoxy-N-(1-methyl-pyrrolidin-3-yl)-benzamide]: the values for the negative logarithm of the IC50 (pIC50) (at IKKε; in assay [1]; on TBK1) were greater than 7.00, 6.00 to 7.00 and greater than 7.00, respectively.

One may read the pIC50 as the negative decadic logarithm of the IC50, by convention in mol/L.
